Measurements: US9217007B2, “Platinum anticancer agents” (priority 2011, dated 2015)
Read-outs that look alike come from different tables or passages of the source.

How the values were obtained:
[1] = system: SKNSH neuroblastoma cell line; assay: Toxicity against neuroblastoma cell line SKNSH; type: cell-based
Procedure: (§1) Compounds SM-73 and SM-85 are assayed against an array of neuroblastoma cell lines.

[2] = system: SHSY5Y neuroblastoma cell line; assay: Toxicity against neuroblastoma cell line SHSY5Y; type: cell-based
Procedure: as §1

HEK-hNET = assay: Toxicity toward HEK cells stably transfected with Norepinephrine Transporter; type: cell-based, human; details: selectivity HEK-EV vs HEK-hNET
Procedure: The term “resistance factor” is a measure of selectivity conferred upon the platinum-based compound by the inclusion of ligands that promote recognition by NET.
(§2) After overnight incubation, the platinum compound with or without an OCT inhibitor (disopyramide) was then be added to the culture medium to various concentrations. After exposure to the drug for 7 hours, the drug-containing medium was replaced with fresh, drug-free medium and the incubation was continued for 72 hours.

[3] = system: Kelly neuroblastoma cell line; assay: Toxicity against neuroblastoma cell line Kelly; type: cell-based
Procedure: as §1

[4] = system: NB1691 neuroblastoma cell line; assay: Toxicity against neuroblastoma cell line NB1691; type: cell-based
Procedure: as §1

[5] = system: HEK-MOCK (untransfected HEK293 cells); assay: MTT cytotoxicity assay in untransfected HEK293 cells; type: cell-based, human; details: 7 h drug exposure then 72 h drug-free
Procedure: (§3) Evaluation of compounds was carried out in an in-vitro cytotoxicity assay, involving a comparison between the effect of the platinum complex on human embryonic kidney cells (HEK293) transfected with human OCT1 (HEK-hOCT1) and OCT2 (HEK-hOCT2) versus those that are not transfected.
as §2
(§4) Evaluation of all three classes of compounds was carried out in an in-vitro cytotoxicity assay, involving a comparison between the effect of the platinum complex on human embryonic kidney cells (HEK293) transfected with human OCT1 (HEK-hOCT1) and OCT2 (HEK-hOCT2) versus those that are not transfected.

HEK-hOCT3 = assay: MTT cytotoxicity assay in HEK293 stably transfected with human OCT3; type: cell-based
Description: HEK293 cell lines, stably expressing hOCT1, hOCT2 and hOCT3.

[6] = system: LANS neuroblastoma cell line; assay: Toxicity against neuroblastoma cell line LANS; type: cell-based
Procedure: as §1

[7] = system: SKNMC neuroblastoma cell line; assay: Toxicity against neuroblastoma cell line SKNMC; type: cell-based
Procedure: as §1

[8] = Rate of inactivation of platinums by glutathione; type: physicochemical; details: platinum drug 100 μM; [GSH] 6.75 mM; [NaCl] 4.62; absorption at 260 nm
Procedure: Platinum-based compound as described herein at a 100 μM concentration was reacted with physiological concentration of GSH and the absorption at 260 nm was measured to monitor the progress of the reaction. Absorption as a function of time (0≦t≦1440 min) for platinum concentration of zero was subtracted from the absorption at each platinum concentration. Initial rates were calculated from the early time points as change in absorption over change in time.
One major pathway by which these platinum drugs get inactivated in vivo is by reaction with glutathione (GSH). We mimicked this reaction with GSH in vitro using physiological concentrations of GSH and salts. Increase in absorption at 260 nm over period of time was monitored for progress of the reaction and initial rates were calculated from the early time points in terms of the change in absorption over change in time.

[9] = system: SHEP neuroblastoma cell line; assay: Toxicity against neuroblastoma cell line SHEP; type: cell-based
Procedure: as §1

[10] = system: RKO colon cancer cell line; assay: Cytotoxicity in colon cancer cell line RKO with and without cimetidine; type: cell-based
Procedure: (§5) Platinum uptake and platinum-DNA adduct formation was then measured in these transfected cell lines. In some cases, chemical inhibitors of OCT1 were used. In general, we used disopyramide (150 μM). […] In some cases, cimetidine (3 mM) was used as a general OCT inhibitor. Cytotoxicity of some of the leads was determined in colon cancer cell lines. Described below in some detail are the methods for these studies.
(§6) HEK293 cell lines, stably expressing hOCT1, hOCT2 and hOCT3. The following colon cancer cell lines were also used: HCT116, RKO, DLD, HT29 and SW620 purchased from American Type Tissue Culture collection.
as §2

[11] = system: SW620 colon cancer cell line; assay: Cytotoxicity in colon cancer cell line SW620 with and without cimetidine; type: cell-based
Procedure: as §5, §6, §2

[12] = system: HCT116 colon cancer cell line; assay: Cytotoxicity in colon cancer cell line HCT116 with and without cimetidine; type: cell-based
Procedure: as §5, §6, §2

[13] = system: HT29 colon cancer cell line; assay: Cytotoxicity in colon cancer cell line HT29 with and without cimetidine; type: cell-based
Procedure: as §5, §6, §2

[14] = system: DLD colon cancer cell line; assay: Cytotoxicity in colon cancer cell line DLD with and without cimetidine; type: cell-based
Procedure: as §5, §6, §2

[15] = system: HEK293 transfected with human OCT1 (HEK-hOCT1); assay: MTT cytotoxicity assay in HEK293 stably transfected with human OCT1; details: read-out: IC50 HEK-hOCT1; HEK293 stably transfected with human OCT1; MTT, 7 h exposure then 72 h
Procedure: as §3, §6, §2, §4

[16] = system: HEK293 transfected with human OCT2 (HEK-hOCT2); assay: MTT cytotoxicity assay in HEK293 stably transfected with human OCT2; details: read-out: IC50 HEK-hOCT2; HEK293 stably transfected with human OCT2; MTT, 7 h exposure then 72 h
Procedure: as §3, §6, §2, §4

NET-expressing HEK cells = assay: Uptake of platinum compounds into NET-expressing HEK cells vs empty vector HEK cells; type: cell-based, human
Description: The success of our targeting strategy can be gauged in-vitro also through comparing the uptake of the platinum complex into cells. The actual effects of this increased uptake can in turn be ascertained and quantified through comparison of DNA-binding of the platinum complexes.
Accumulation was normalized to protein content.

neuroblastoma xenografts = assay: Antitumor efficacy against neuroblastoma xenografts in mice; type: in vivo; details: compared to cisplatin (FIG. 8)
DNA in HEK cells = assay: DNA-binding of the platinum agents in HEK cells; type: cell-based, human; details: compared to cisplatin
Procedure: After incubation, genomic DNA was isolated from the cell pellets using Wizard® Genomic DNA Purification Kit (Promega, Madison, Wis.) following the manufacturer's instructions. The genomic DNA was used for determination of platinum (ICP-MS) and DNA content (absorption spectrometry at 260 nm). Platinum-DNA adduct formation was expressed as amount of platinum per amount of DNA.

[17] = Toxicity evaluation of treated mice (CBC, kidney and liver function, ototoxicity); details: mouse, in vivo
Procedure: An evaluation is being conducted in various body tissues/plasma to determine toxicity.
The SM-73 treated mice group was also evaluated for ototoxicity.

[18] = system: OCT1 (human, expressed in the cells; OCT1-dependent cytotoxicity); assay: MTT cytotoxicity assay in HEK293 stably transfected with human OCT1; details: human
Procedure: as §3, §6, §2, §4

[19] = system: OCT2 (human, expressed in the cells; OCT2-dependent cytotoxicity); assay: MTT cytotoxicity assay in HEK293 stably transfected with human OCT2; details: human
Procedure: as §3, §6, §2, §4

[20] = RK0, absence of cimetidine, read-out: IC50
[21] = RK0, cimetidine 3 mM, read-out: IC50 (in presence of cimetidine)
[22] = SW620, absence of cimetidine, read-out: IC50
[23] = SW620, cimetidine 3 mM, read-out: IC50 (in presence of cimetidine)
[24] = HCT116, absence of cimetidine, read-out: IC50
[25] = HCT116, cimetidine 3 mM, read-out: IC50 (in presence of cimetidine)
[26] = HT29, absence of cimetidine, read-out: IC50
[27] = HT29, cimetidine 3 mM, read-out: IC50 (in presence of cimetidine)
[28] = absence of cimetidine, read-out: IC50
[29] = cimetidine 3 mM, read-out: IC50 (in presence of cimetidine)

| SMILES | IC50 [1] | IC50 [2] | Resistance Factor (HEK-hNET) | IC50 [3] | IC50 [4] | IC50 [5] | IC50 (HEK-hOCT3) | IC50 [6] | IC50 [7] | Initial Rate of reaction with glutathione [8] | IC50 [9] | IC50 [10, 20] | IC50 [10, 21] | IC50 [11, 22] | IC50 [11, 23] | IC50 [12, 24] | IC50 [12, 25] | IC50 [13, 26] | IC50 [13, 27] | IC50 [14, 28] | other results |
| --- | --- | --- | --- | --- | --- | --- | --- | --- | --- | --- | --- | --- | --- | --- | --- | --- | --- | --- | --- | --- | --- |
| N.N.[Cl][Pt][Cl] [Cisplatin] | 3.77 µM | 18.6 µM | 1.8 | 19.9 µM | 12.4 µM | 2.62 µM | 4.84 µM | 6.16 µM | 9.63 µM | 0.1173 Absorption unit/hr | 24.5 µM | – | – | – | – | – | – | – | – | – | – |
| O=C1[O][Pt]2([NH][C@@H]3CCCC[C@H]3[NH]2)[O]C1=O [Oxaliplatin, reference compound] | 15.5 µM | 18.8 µM | – | 20.4 µM | 29.4 µM | 1.62 µM | 1.32 µM | 15.9 µM | 19.9 µM | 0.0909 Absorption unit/hr | 24.8 µM | 2.9 ± 0.77 µM | 41.7 µM | 7.16 ± 3.59 µM | 40 µM | 6.14 ± 1.8 µM | 66.5 µM | 13.2 ± 3.3 µM | 61.2 µM | 21.5 ± 5.3 µM | IC50 [14, 29]: 151 µM |
| [NH2][Pt]([NH2])([Cl])[N]1CCN(c2ccccc2)CC1 [SM71] | – | – | – | – | – | – | – | – | – | – | – | – | – | – | – | – | – | – | – | – | IC50 [15]: 0.745 ± 0.003 µM; IC50 [16]: 1.26 ± 0.319 µM |
| [NH3+][Pt-2]([Cl])([Cl])[NH+]1CCN(c2ccccc2)CC1 [SM73] | 3.58 µM | 13.8 µM | 5.5 | 13.1 µM | 9.72 µM | 12.3 ± 0.759 µM | – | 5.24 µM | 13.6 µM | 0.1132 Absorption unit/hr | 16.5 µM | 19.6 ± 1.17 µM | 75.8 µM | 33 ± 5.27 µM | 147 µM | 18.3 ± 2.28 µM | 71.2 µM | 14.5 ± 8.54 µM | 109 µM | 48.9 ± 8.5 µM | Resistance Factor ([10]; RK0, ratio of IC50 in presence and absence of cimetidine): 3.87; selectivity for accumulation into NET-expressing HEK cells (NET-expressing HEK cells): 3.25 fold; antitumor efficacy against neuroblastoma xenografts (neuroblastoma xenografts): retains the antitumor efficacy of cisplatin to a significant extent; Resistance Factor ([11]; SW620, ratio of IC50 in presence and absence of cimetidine): 4.45; Resistance Factor ([12]; HCT116, ratio of IC50 in presence and absence of cimetidine): 3.88; IC50 [15]: 0.036 ± 0.004 µM; DNA-binding (DNA in HEK cells): increased DNA-binding; ototoxicity [17]: No ototoxicity was observed; Resistance Factor ([13]; HT29, ratio of IC50 in presence and absence of cimetidine): >7; IC50 [14, 29]: 195 µM; Resistance Factor ([14]; ratio of IC50 in presence and absence of cimetidine): 3.98; IC50 [16]: 0.005 ± 0.001 µM |
| [NH2][Pt]([NH2])([Cl])[N]1CCN(c2ccccc2)CC1 [SM78] | – | – | – | – | – | – | – | – | – | – | – | – | – | – | – | – | – | – | – | – | IC50 at 7 h ([18]; IC50 HEK-hOCT1, HEK293 stably transfected with human OCT1, MTT, 7 h exposure then 72 h): 0.988 ± 0.03 µM; IC50 at 7 h ([19]; IC50 HEK-hOCT2, HEK293 stably transfected with human OCT2, MTT, 7 h exposure then 72 h): 2.35 ± 0.313 µM |
| [NH2][Pt]([Cl])([Cl])[N]1CCN(c2ccc(F)cc2)CC1 [SM85] | – | – | – | – | – | – | – | – | – | 0.1037 Absorption unit/hr | – | – | – | – | – | – | – | – | – | – | IC50 at 7 h [18]: 0.071 ± 0.014 µM; DNA-binding (DNA in HEK cells): increased DNA-binding; IC50 at 7 h [19]: 0.208 ± 0.035 µM |
